{"source": "patent US20100216886A1", "about": "“POLYMORPHS OF N2-(1,1'-BIPHENYL-4-YLCARBONYL)-N1-[2-(4-FLUOROPHENYL)-1,1-DIMETHYLETHYL]-L-ALPHA-GLUTAMINE” (Wyeth, priority 2006, published 2010)", "key": {"[1]": {"test": "Dynamic Vapor Sorption (DVS) analysis", "type": "physicochemical", "conditions": "room temperature, 6-hour equilibration period", "from_the_text": "Sample F was subject to Dynamic Vapor Sorption (DVS) analysis at room temperature. The sample was first analyzed by Karl Fischer (KF) titration containing initial moisture content of 3.7% for the monohydrate form. RH cycling started at 50% relative humidity (RH) to 100% RH and down to 0% RH and then back up to 100% RH. A 3-hour/step equilibration period was found insufficient, so the run was repeated with a 6-hour period, which was still not sufficient.\n(§1) As a result, an equilibrium moisture study using desiccators containing saturated salt solutions for humidity control was performed. Sample F was incubated at 0%, 15%, 31%, 66%, 87%, and 100% RH in room temperature for up to 20 days. Samples were periodically assayed by KF titration to give the kinetic profiles. XRD analysis was performed at the end of 20 days. The data is summarized in Table 8 with kinetic and equilibrium data plotted in FIGS. 18 and 19."}, "[2]": {"test": "Equilibrium moisture study in desiccators with saturated salt solutions (KF, XRD)", "type": "physicochemical", "conditions": "Sample F incubated at room temperature, 20 days; listed as sesquihydrate", "experimental": "as §1, with “Sample F was incubated at 0%, 15%, 31%, 66%, 87%, and 100% RH in room temperature for up to 20 days.” left out"}, "[3]": {"test": "Solubility in water and 2% Tw80 of samples used in toxicological formulation assessments", "type": "physicochemical", "from_the_text": "Table 6 summarizes various solid-state properties of samples used in toxicological formulation assessments."}, "[4]": {"test": "In situ rat perfusion model, metoprolol as reference", "type": "in vivo", "set-up": "Papp: dose or concentration left out as unconfirmed", "from_the_text": "The permeability was 18.2 nm/sec, which is higher than the 14.5 nm/sec value obtained for metoprolol (Table 13)."}, "[5]": {"test": "First CACO-2 study, metoprolol as reference", "conditions": "human; for recovery: Caco-2, pH 7.4, % Recovery, pH 7.4"}, "[6]": {"test": "Second CACO-2 study, propranolol as reference", "type": "in vitro ADME", "conditions": "human, Caco-2; A → B, apical pH 6, basolateral pH 7, without verapamil", "from_the_text": "The second CACO-2 study gave somewhat different results (Table 12). Because metoprolol interferes with the LC/MS assay, propranolol, which has a permeability that is […] metoprolol, was used as the FDA calibration compound. The apical pH was controlled at 6 and basolateral pH at pH 7. In addition, verapamil was used as a competitive inhibitor of the Pgp (P-glycoprotein) transporter. The ratios to propranolol were 1.00 and 0.77 with and without verapamil. […] The B→A/A→B ratios were low at 0.3 and 0.3, with and without verapamil, respectively, indicating again no efflux […]."}, "[7]": {"test": "Solubility of suspensions in Tox formulation (2% Tween 80 in water) by HPLC", "type": "physicochemical", "conditions": "ambient conditions", "experimental": "Suspensions of 10 to 20 mg/mL of compound (I) in a Tox (toxicological) formulation (2% Tween 80 in water) using the polymorphs described above were prepared and equilibrated at ambient conditions. The stability of the suspensions was evaluated visually and the solubility of the suspensions was determined by HPLC.\nMobile Phase: A=900 mL/100 mL/0.1 mL Water/Acetonitrile/TFA\nB=100 mL/900 mL/0.1 mL Water/Acetonitrile/TFA"}, "[8]": {"test": "Polymorphic conversion study in aqueous media (2% Tween 80, water)", "type": "physicochemical", "from_the_text": "Polymorphic conversion of Form A to Form B was not observed with Sample D in 2% Tween 80 or water.\nPolymorph pseudo Form A was obtained from a scaled up preparation of polymorph Form A (Sample E).\nThe polymorphic conversion appeared to be slower in water than in the 2% Tween suspension, probably due to the lower solubility in water.\nDSC data also supported this observation (FIG. 11)."}, "[9]": {"test": "Solid state stability", "type": "physicochemical"}, "[10]": {"test": "physchem", "conditions": "for solubility at 24 h: aqueous buffer, thermodynamic from solid", "experimental": "The pH solubility profile was generated first with Sample D containing polymorph Form A, and then with Sample F containing polymorph Form B, in HCl/NaOH solutions. After 24 hour equilibration, suspensions were centrifuged and the supernatants assayed by HPLC.\nThe solubility data was analyzed as a function of pH using the Henderson-Hasselbach equation:\nSolubility=S0·[10^(PH-pKa)+1],\nwhere S0 is the intrinsic solubility of the free acid."}, "[11]": {"test": "Solid state stability", "type": "physicochemical", "conditions": "40° C./75% RH, open and closed vials, 3 months", "experimental": "Sample F containing polymorph Form B was further investigated at 40° C./75% RH using open and closed vials for 3 months. […] Therefore, the monohydrate needs to be stored in hermetically sealed containers in order to prevent conversion to the sesquihydrate."}, "[12]": {"test": "Thermal stress of polymorph Form B (vacuum drying, oven)", "type": "physicochemical", "experimental": "Polymorph Form B (Sample F) was stressed with vacuum drying at 40° C."}, "[13]": {"conditions": "1-month storage at 40° C./75% RH"}, "[14]": {"conditions": "vacuum drying at 40° C., 36 hours"}}, "note": "Entries after “also recorded” stand apart in the source; their conditions may differ. Counter-ions that a name gives are not always drawn. Like-named read-outs stand apart in the source and are kept apart here.", "data": [{"smiles": "CC(C)(Cc1ccc(F)cc1)NC(=O)[C@H](CCC(=O)O)NC(=O)c1ccc(-c2ccccc2)cc1", "note": "[Form C, N^2-(1,1′-biphenyl-4-ylcarbonyl)-N^1-[2-(4-fluorophenyl)-1,1-dimethylethyl]-L-α-glutamine]", "values": [{"measurement": "RH range in which the form is stable (DVS)", "setting": "[1]", "result": "30-100 % RH"}, {"measurement": "RH range at which the form is present by XRD", "setting": "[2]", "result": "66-100 % RH"}]}, {"smiles": "CC(C)(Cc1ccc(F)cc1)NC(=O)[C@H](CCC(=O)O)NC(=O)c1ccc(-c2ccccc2)cc1", "note": "[G, N^2-(1,1′-biphenyl-4-ylcarbonyl)-N^1-[2-(4-fluorophenyl)-1,1-dimethylethyl]-L-α-glutamine]", "values": [{"measurement": "Solubility, 2% Tw80", "setting": "[3]", "result": 127, "unit": "µg/mL"}, {"measurement": "pH of 2% Tw80 solubility sample", "setting": "[3]", "result": 5.9}]}, {"smiles": "COCCc1ccc(OCC(O)CNC(C)C)cc1", "note": "(centres unmarked) [Metoprolol, reference compound]", "values": [{"measurement": "Papp", "setting": "[4]; in situ rat perfusion model, read-out: permeability", "result": 1.45, "unit": "×10⁻⁶ cm/s"}, {"measurement": "Peff × 10^−1 (μm/sec)", "setting": "[4]; rat perfusion, 20 μg/mL", "result": "1.45 × 10^−1 μm/sec"}, {"measurement": "Papp A→B", "setting": "[5]; Caco-2, pH 7.4", "result": 60.4, "unit": "×10⁻⁶ cm/s"}, {"measurement": "recovery", "setting": "[5]; A → B", "result": 109, "unit": "%"}, {"measurement": "recovery", "setting": "[5]; B → A", "result": 115, "unit": "%"}]}, {"smiles": "CC(C)NCC(O)COc1cccc2ccccc12", "note": "(centres unmarked) [Propranolol, reference compound]", "values": [{"measurement": "Papp A→B", "setting": "[6]", "result": 62.6, "unit": "×10⁻⁶ cm/s"}]}, {"smiles": "CC(C)(Cc1ccc(F)cc1)NC(=O)[C@H](CCC(=O)O)NC(=O)c1ccc(-c2ccccc2)cc1", "note": "[Sample 1, N^2-(1,1′-biphenyl-4-ylcarbonyl)-N^1-[2-(4-fluorophenyl)-1,1-dimethylethyl]-L-α-glutamine]", "values": [{"measurement": "solubility", "setting": "[7]", "result": 201.9, "unit": "µg/mL"}]}, {"smiles": "CC(C)(Cc1ccc(F)cc1)NC(=O)[C@H](CCC(=O)O)NC(=O)c1ccc(-c2ccccc2)cc1", "note": "[Sample 2, N^2-(1,1′-biphenyl-4-ylcarbonyl)-N^1-[2-(4-fluorophenyl)-1,1-dimethylethyl]-L-α-glutamine]", "values": [{"measurement": "solubility", "setting": "[7]", "result": 245.0, "unit": "µg/mL"}]}, {"smiles": "CC(C)(Cc1ccc(F)cc1)NC(=O)[C@H](CCC(=O)O)NC(=O)c1ccc(-c2ccccc2)cc1", "note": "[Sample 4, N^2-(1,1′-biphenyl-4-ylcarbonyl)-N^1-[2-(4-fluorophenyl)-1,1-dimethylethyl]-L-α-glutamine]", "values": [{"measurement": "solubility", "setting": "[7]; 2% Tween 80 in water (Tox formulation), aqueous with cosolvent or surfactant or cyclodextrin, thermodynamic from solid, read-out: Solubility", "result": 221, "unit": "µg/mL"}]}, {"smiles": "CC(C)(Cc1ccc(F)cc1)NC(=O)[C@H](CCC(=O)O)NC(=O)c1ccc(-c2ccccc2)cc1", "note": "[Sample 7, N^2-(1,1′-biphenyl-4-ylcarbonyl)-N^1-[2-(4-fluorophenyl)-1,1-dimethylethyl]-L-α-glutamine]", "values": [{"measurement": "solubility", "setting": "[7]", "result": 216.4, "unit": "µg/mL"}]}, {"smiles": "CC(C)(Cc1ccc(F)cc1)NC(=O)[C@H](CCC(=O)O)NC(=O)c1ccc(-c2ccccc2)cc1", "note": "[Sample A, N^2-(1,1′-biphenyl-4-ylcarbonyl)-N^1-[2-(4-fluorophenyl)-1,1-dimethylethyl]-L-α-glutamine]", "values": [{"measurement": "Degradation products of compound (I) by HPLC in converted materials", "setting": "[8]; after conversion in 2% Tween 80 or water", "result": "do not contain degradation products"}]}, {"smiles": "CC(C)(Cc1ccc(F)cc1)NC(=O)[C@H](CCC(=O)O)NC(=O)c1ccc(-c2ccccc2)cc1", "note": "[Sample D, N^2-(1,1′-biphenyl-4-ylcarbonyl)-N^1-[2-(4-fluorophenyl)-1,1-dimethylethyl]-L-α-glutamine]", "values": [{"measurement": "Chemical stability, solid state", "setting": "[9]; 14-day storage at room temperature, in temperatures up to 80° C., and in a light box (510 fc)", "result": "demonstrated chemical stability"}, {"measurement": "solubility at 24 h", "setting": "[10]; Solubility at pH<4", "result": "~4.5", "unit": "µg/mL"}, {"measurement": "Solubility, 2% Tw80", "setting": "[3]", "result": 468, "unit": "µg/mL"}, {"measurement": "pH of 2% Tw80 solubility sample", "setting": "[3]", "result": 5.4}, {"measurement": "Solubility, Water", "setting": "[3]", "result": 37, "unit": "µg/mL"}, {"measurement": "pH of water solubility sample", "setting": "[3]", "result": 5.5}, {"measurement": "Polymorphic conversion", "setting": "[8]; 2% Tween 80/water suspension, overnight", "result": "not observed; also recorded: did not undergo polymorphic conversion"}, {"measurement": "Polymorphic conversion / Polymorph Form after stirring", "setting": "[8]; suspension 100 mg/mL in water, overnight (~18 hr), ambient conditions", "result": "not observed; also recorded: did not undergo polymorphic conversion"}]}, {"smiles": "CC(C)(Cc1ccc(F)cc1)NC(=O)[C@H](CCC(=O)O)NC(=O)c1ccc(-c2ccccc2)cc1", "note": "[Sample F, N^2-(1,1′-biphenyl-4-ylcarbonyl)-N^1-[2-(4-fluorophenyl)-1,1-dimethylethyl]-L-α-glutamine]", "values": [{"measurement": "Polymorphic conversion (DSC and XRD)", "setting": "[9]; [13]", "result": "polymorphic conversion from Form B to Form C"}, {"measurement": "Water content", "setting": "[9]; [13]", "result": 5.4, "unit": "%"}, {"measurement": "solubility at 24 h", "setting": "[10]; Solubility at pH<4 (below HPLC detection limit)", "result": "< 0.011", "unit": "µg/mL"}, {"measurement": "Chemical stability, solid state", "setting": "[11]", "result": "chemically stable"}, {"measurement": "Solubility, 2% Tw80", "setting": "[3]", "result": 217, "unit": "µg/mL"}, {"measurement": "pH of 2% Tw80 solubility sample", "setting": "[3]", "result": 5.9}, {"measurement": "Solubility, Water", "setting": "[3]", "result": 99, "unit": "µg/mL"}, {"measurement": "pH of water solubility sample", "setting": "[3]", "result": 7.6}, {"measurement": "Conversion of monohydrate to anhydrate", "setting": "[12]; 100° C. oven, 23 hours", "result": "convert completely to the anhydrate"}, {"measurement": "Conversion of monohydrate to anhydrate", "setting": "[12]; [14]", "result": "did not convert to the anhydrate"}, {"measurement": "Water retained", "setting": "[12]; [14]", "result": 2.95, "unit": "%"}]}, {"smiles": "CC(C)(Cc1ccc(F)cc1)NC(=O)[C@H](CCC(=O)O)NC(=O)c1ccc(-c2ccccc2)cc1", "note": "[sodium salt, N^2-(1,1′-biphenyl-4-ylcarbonyl)-N^1-[2-(4-fluorophenyl)-1,1-dimethylethyl]-L-α-glutamine]", "values": [{"measurement": "Solubility at pH 12.8", "setting": "[10]; HCl/NaOH solutions, 24 hour equilibration, HPLC", "result": 4.7, "unit": "mg/mL"}]}]}
